# Measurements reported in US12612409B2, “Pyrrolopyrimidines as CFTR potentiators” (Cystic Fibrosis Foundation, priority 2016, dated 2026).
# What was measured:
# [1] = target: T1, CFTR in F508del/F508del primary CF hBE cells (Homo sapiens, UniProt P13569, DEL508-508); test: Ussing chamber electrophysiology assay of CFTR potentiation in F508del/F508del CF bronchial epithelial cells (27° C.); assay type: cell-based
# T1 construct: Primary cystic fibrosis human bronchial epithelial (CF hBE) cells were expanded and cultured; endogenous in cells; host or cells: primary CF human bronchial epithelial cells, genotype F508del/F508del
# T1 sequence (P13569 with tags, fused parts or gaps DEL508-508): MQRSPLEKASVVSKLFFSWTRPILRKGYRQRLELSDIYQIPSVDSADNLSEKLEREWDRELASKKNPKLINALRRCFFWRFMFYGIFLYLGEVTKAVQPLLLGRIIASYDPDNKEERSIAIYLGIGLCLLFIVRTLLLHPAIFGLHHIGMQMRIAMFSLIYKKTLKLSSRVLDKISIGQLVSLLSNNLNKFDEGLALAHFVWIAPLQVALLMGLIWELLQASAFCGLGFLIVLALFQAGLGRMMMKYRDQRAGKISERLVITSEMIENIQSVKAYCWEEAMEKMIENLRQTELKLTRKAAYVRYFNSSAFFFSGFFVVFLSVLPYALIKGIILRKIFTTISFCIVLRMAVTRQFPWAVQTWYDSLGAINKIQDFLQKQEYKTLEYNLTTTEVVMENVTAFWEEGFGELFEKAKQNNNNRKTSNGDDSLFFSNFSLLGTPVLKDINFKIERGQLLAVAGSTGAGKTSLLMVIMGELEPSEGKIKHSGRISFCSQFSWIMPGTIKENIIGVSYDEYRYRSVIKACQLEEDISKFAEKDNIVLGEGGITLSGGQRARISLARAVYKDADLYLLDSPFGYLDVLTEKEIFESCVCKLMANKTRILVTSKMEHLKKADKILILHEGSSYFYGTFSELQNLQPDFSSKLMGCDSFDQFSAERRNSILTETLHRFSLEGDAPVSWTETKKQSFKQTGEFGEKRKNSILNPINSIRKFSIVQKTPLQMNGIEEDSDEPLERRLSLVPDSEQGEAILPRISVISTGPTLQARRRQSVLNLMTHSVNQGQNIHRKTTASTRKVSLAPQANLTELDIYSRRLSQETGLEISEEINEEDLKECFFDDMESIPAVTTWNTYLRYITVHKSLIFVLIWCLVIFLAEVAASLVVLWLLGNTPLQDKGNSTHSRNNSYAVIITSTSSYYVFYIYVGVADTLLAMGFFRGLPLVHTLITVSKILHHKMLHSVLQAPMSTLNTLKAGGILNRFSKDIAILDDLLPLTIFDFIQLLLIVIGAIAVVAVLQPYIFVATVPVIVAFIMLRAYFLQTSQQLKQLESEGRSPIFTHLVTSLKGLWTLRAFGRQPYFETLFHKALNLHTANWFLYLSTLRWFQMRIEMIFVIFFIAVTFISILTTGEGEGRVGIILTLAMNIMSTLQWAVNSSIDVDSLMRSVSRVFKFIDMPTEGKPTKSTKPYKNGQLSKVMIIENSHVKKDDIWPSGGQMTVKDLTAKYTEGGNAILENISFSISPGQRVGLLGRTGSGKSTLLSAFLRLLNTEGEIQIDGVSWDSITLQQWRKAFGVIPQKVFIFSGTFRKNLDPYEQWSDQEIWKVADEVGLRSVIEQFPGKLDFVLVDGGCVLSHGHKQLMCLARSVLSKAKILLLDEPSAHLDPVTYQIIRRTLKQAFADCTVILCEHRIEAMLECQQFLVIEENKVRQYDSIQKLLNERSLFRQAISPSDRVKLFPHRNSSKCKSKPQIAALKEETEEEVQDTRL
# From the text: • SHELXTL, Version 5.1, Bruker AXS, 1997. • PLATON, A. L. Spek, J. Appl. Cryst. 2003, 36, 7-13. • MERCURY, C. F. Macrae, P. R. Edington, P. McCabe, E. Pidcock, G. P. Shields, R. Taylor, M. Towler and J. van de Streek, J. Appl. Cryst. 39, 453-457, 2006. • OLEX2, Dolomanov, O. V.; Bourhis, L. J.; Gildea, R. J.; Howard, J. A. K.; Puschmann, H., (2009). J. Appl. Cryst., 42, 339-341. • R. W. W. Hooft et al. J. Appl. Cryst. (2008). 41. 96-103. • H. D. Flack, Acta Cryst. 1983, A39, 867-881. Using Chamber Electrophysiology Assay of CFTR Potentiation in CF Bronchial Epithelial Cells
# Primary cystic fibrosis human bronchial epithelial (CF hBE) cells were expanded and cultured according to published methods (Neuberger et al., Ch. 4 of Cystic Fibrosis, Methods in Molecular Biology vol. 741, pp. 39-54 (2011)). Well-differentiated cells (>30 days at air/liquid interface) on Snapwell filters (Corning Costar, cat. no. 3801) were mounted in Ussing chambers (Physiologic Instruments, Inc., San Diego, CA). […] HEPES buffered physiological saline (composition (in mM): 137 NaCl, 4 KCl, 1 MgCl2, 1.8 CaCl2), 10 HEPES Na) was used in both apical and basolateral chambers. Chambers were bubbled with air to promote mixing and the voltage was clamped to zero. Amiloride (30 uM), forskolin (10 uM), test compound (4 increasing concentrations), and CFTRinh-172 (20 uM) were added sequentially with 20-25 minutes between additions. Short-circuit currents were acquired and analyzed using LabScribe2. Test compound responses were scaled relative to responses for DMSO (0%) and the maximal response of a positive control potentiator (100%).
# [2] = target: T2, recombinant F508del V470 CFTR in Fischer rat thyroid (FRT) cells (Homo sapiens, UniProt P13569, DEL508-508); test: FRT ion flux assay of F508del CFTR potentiation; assay type: cell-based; settings: FRT cells expressing F508del V470 CFTR, forskolin 20 uM, 27° C. pre-incubation
# T2 construct: expressed in transfected cells
# T2 sequence (P13569 with tags, fused parts or gaps DEL508-508): as above
# In short: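 Potentiation read as YFP quench ~21 s after iodide buffer addition, as second/initial fluorescence ratio normalised between DMSO (0%) and reference potentiator (100%).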
EC50 [1],EC50 [2],SMILES
279 nM,1020 nM,"CCC(c1cn(-c2cc(F)cc(F)c2)nn1)n1cc(-c2cnc(C(F)(F)F)nc2)c2c(N)ncnc21 (single isomer, unassigned; enantiomer 2) [Example 312, 7-{1-[1-(3,5-Difluorophenyl)-1H-1,2,3-triazol-4-yl]propyl}-5-[2-(trifluoromethyl)pyrimidin-5-yl]-7H-pyrrolo[2,3-d]pyrimidin-4-amine, enantiomer 2]"
2.24 nM,2.33 nM,"N#Cc1c(-c2cnc(C(F)(F)F)nc2)c2c(N)ncnc2n1Cc1cnn(-c2ccc(F)cc2F)c1 [Example 29, 4-Amino-7-{[1-(2,4-difluorophenyl)-1H-pyrazol-4-yl]methyl}-5-[2-(trifluoromethyl)pyrimidin-5-yl]-7H-pyrrolo[2,3-d]pyrimidine-6-carbonitrile]"
28 nM,40.9 nM,"CC(c1cn(-c2ccccc2F)nn1)n1cc(-c2ccc(Cl)c(F)c2)c2c(N)ncnc21 (centres unmarked) [Example 98, 5-(4-Chloro-3-fluorophenyl)-7-{1-[1-(2-fluorophenyl)-1H-1,2,3-triazol-4-yl]ethyl}-7H-pyrrolo[2,3-d]pyrimidin-4-amine]"
50.3 nM,124 nM,"COc1nccnc1-c1cn(Cc2cn(-c3ccccc3F)nn2)c2ncnc(N)c12 [Example 296, 7-{[1-(2-Fluorophenyl)-1H-1,2,3-triazol-4-yl]methyl}-5-(3-methoxypyrazin-2-yl)-7H-pyrrolo[2,3-d]pyrimidin-4-amine]"
243 nM,551 nM,"CCC(c1cn(-c2cccc(F)c2F)nn1)n1cc(-c2cnc(C(F)(F)F)nc2)c2c(N)ncnc21 (single isomer, unassigned) [Example 188, 7-{1-[1-(2,3-Difluorophenyl)-1H-1,2,3-triazol-4-yl]propyl}-5-[2-(trifluoromethyl)pyrimidin-5-yl]-7H-pyrrolo[2,3-d]pyrimidin-4-amine]"
273 nM,235 nM,"Nc1ncnc2c1c(-c1cccc3ncoc13)cn2Cc1cn(-c2ccccc2F)nn1 [Example 299, 5-(1,3-Benzoxazol-7-yl)-7-{[1-(2-fluorophenyl)-1H-1,2,3-triazol-4-yl]methyl}-7H-pyrrolo[2,3-d]pyrimidin-4-amine]"
461 nM,360 nM,"Nc1ncnc2c1c(-c1ncco1)cn2Cc1cn(-c2ccccc2F)nn1 [Example 301, 7-{[1-(2-Fluorophenyl)-1H-1,2,3-triazol-4-yl]methyl}-5-(1,3-oxazol-2-yl)-7H-pyrrolo[2,3-d]pyrimidin-4-amine]"
3.46 nM,15.3 nM,"CCC(c1cn(-c2ccccc2F)nn1)n1cc(-c2nccnc2OC)c2c(N)ncnc21 (single isomer, unassigned; enantiomer 2) [Example 136, (+) 7-{1-[1-(2-Fluorophenyl)-1H-1,2,3-triazol-4-yl]propyl}-5-(3-methoxypyrazin-2-yl)-7H-pyrrolo[2,3-d]pyrimidin-4-amine, enantiomer 2]"
267 nM,96.8 nM,"Cc1c(C(C)n2c(C#N)c(-c3cnc(C(F)(F)F)nc3)c3c(N)ncnc32)nnn1-c1ccccc1F (single isomer, unassigned) [Example 13, 4-amino-7-(1-(1-(2-fluorophenyl)-5-methyl-1H-1,2,3-triazol-4-yl)ethyl)-5-(2-(trifluoromethyl)pyrimidin-5-yl)-7H-pyrrolo[2,3-d] pyrimidine-6-carbonitrile]"
140 nM,422 nM,"CC(C)n1cc(Cn2cc(-c3ccc(Cl)cc3)c3c(N)ncnc32)cn1 [Example 254, 5-(4-Chlorophenyl)-7-{[1-(propan-2-yl)-1H-pyrazol-4-yl]methyl}-7H-pyrrolo[2,3-d]pyrimidin-4-amine]"
216 nM,909 nM,"Nc1ncnc2c1c(-c1ccc(Cl)cc1)cn2Cc1nc(-c2ccccc2)c[nH]1 [Example 282, 5-(4-Chlorophenyl)-7-[(4-phenyl-1H-imidazol-2-yl)methyl]-7H-pyrrolo[2,3-d]pyrimidin-4-amine]"
2120 nM,> 25000 nM,"Nc1ncnc2c1c(C1CCCO1)cn2Cc1cn(-c2ccccc2F)nn1 (centres unmarked) [Example 198, 7-{[1-(2-Fluorophenyl)-1H-1,2,3-triazol-4-yl]methyl}-5-(tetrahydrofuran-2-yl)-7H-pyrrolo[2,3-d]pyrimidin-4-amine]"
2530 nM,1610 nM,"COc1ncncc1-c1cn(Cc2cn(-c3ccccc3F)nn2)c2nc(C)nc(N)c12 [Example 203, 7-{[1-(2-fluorophenyl)-1H-1,2,3-triazol-4-yl]methyl}-5-(4-methoxypyrimidin-5-yl)-2-methyl-7H-pyrrolo[2,3-d]pyrimidin-4-amine]"
34.8 nM,45.5 nM,"CSc1ccc(-c2cn(C(C)c3cn(-c4ccccc4F)nn3)c3ncnc(N)c23)c(F)c1 (centres unmarked) [Example 90, 5-[2-Fluoro-4-(methylsulfanyl)phenyl]-7-{1-[1-(2-fluorophenyl)-1H-1,2,3-triazol-4-yl]ethyl}-7H-pyrrolo[2,3-d]pyrimidin-4-amine]"
338 nM,379 nM,"Nc1ncnc2c1c(-c1ccc3[nH]ccc3c1)cn2Cc1cn(-c2ccccc2F)nn1 [Example 81, 7-{[1-(2-Fluorophenyl)-1H-1,2,3-triazol-4-yl]methyl}-5-(1H-indol-5-yl)-7H-pyrrolo[2,3-d]pyrimidin-4-amine]"
25.7 nM,12.4 nM,"CCC(c1cn(-c2ccccc2F)nn1)n1cc(-c2cc[nH]n2)c2c(N)ncnc21 (single isomer, unassigned; enantiomer 2) [Example 148, 7-{1-[1-(2-Fluorophenyl)-1H-1,2,3-triazol-4-yl]propyl}-5-(1H-pyrazol-3-yl)-7H-pyrrolo[2,3-d]pyrimidin-4-amine, enantiomer 2]"
1.19 nM,1.01 nM,"CC(c1cnn(-c2ccccc2F)c1)n1c(C#N)c(-c2cnc(C(F)(F)F)nc2)c2c(N)ncnc21 (single isomer, unassigned) [Example 6, 4-Amino-7-(1-(1-(2-fluorophenyl)-1H-pyrazol-4-yl)ethyl)-5-(2-(trifluoromethyl)pyrimidin-5-yl)-7H-pyrrolo[2,3-d] pyrimidine-6-carbonitrile]"
50.5 nM,25 nM,"CCC(c1cn(-c2ccc(F)cc2F)nn1)n1cc(-c2cnc(C(F)F)nc2)c2c(N)ncnc21 (single isomer, unassigned; enantiomer 1) [Example 167, 5-[2-(Difluoromethyl)pyrimidin-5-yl]-7-{1-[1-(2,4-difluorophenyl)-1H-1,2,3-triazol-4-yl]propyl}-7H-pyrrolo[2,3-d]pyrimidin-4-amine, enantiomer 1]"
48.8 nM,214 nM,"CCC(c1cn(-c2cccc(F)c2F)nn1)n1cc(-c2cc(F)cnc2OC)c2c(N)ncnc21 (single isomer, unassigned; enantiomer 2) [Example 170, 7-{1-[1-(2,3-Difluorophenyl)-1H-1,2,3-triazol-4-yl]propyl}-5-(5-fluoro-2-methoxypyridin-3-yl)-7H-pyrrolo[2,3-d]pyrimidin-4-amine, enantiomer 2]"
32.5 nM,41.8 nM,"CCC(c1cn(-c2ccccc2F)nn1)n1c(C#N)c(-c2cnc(C(F)(F)F)nc2)c2c(N)ncnc21 (single isomer, unassigned) [Example 23, 4-Amino-7-{1-[1-(2-fluorophenyl)-1H-1,2,3-triazol-4-yl]propyl}-5-[2-(trifluoromethyl)pyrimidin-5-yl]-7H-pyrrolo[2,3-d]pyrimidine-6-carbonitrile]"
2930 nM,933 nM,"COc1ncncc1-c1cn(C(c2cn(-c3ccccc3F)nn2)C2COC2)c2ncnc(N)c12 (centres unmarked) [Example 315, 7-{[1-(2-Fluorophenyl)-1H-1,2,3-triazol-4-yl](oxetan-3-yl)methyl}-5-(4-methoxypyrimidin-5-yl)-7H-pyrrolo[2,3-d]pyrimidin-4-amine]"
150 nM,75.2 nM,"COc1cc(C#N)ccc1-c1cn(Cc2cn(-c3ccccc3F)nn2)c2ncnc(N)c12 [Example 79, 4-(4-Amino-7-{[1-(2-fluorophenyl)-1H-1,2,3-triazol-4-yl]methyl}-7H-pyrrolo[2,3-d]pyrimidin-5-yl)-3-methoxybenzonitrile]"
